Experimental data as given in publication PMC9613624 (Journal of medicinal chemistry, 2022).

System: AKT
Experiment: Western blotting of total AKT
Type: cell-based
Details: PC3 cells, 1 μM, 24 h

| Compound | T-AKT protein level / AKT degradation (western blot, in words) |
| --- | --- |
| Cc1ncsc1-c1ccc(CNC(=O)[C@@H]2C[C@@H](O)CN2C(=O)[C@@H](NC(=O)CNC(=O)CCc2cccc(-c3ccc4nc(-c5cccnc5N)n(-c5ccc(C6(N)CCC6)cc5)c4n3)c2)C(C)(C)C)cc1 [Compound 11, (2S,4R)-1-((S)-2-(2-(3-(3-(3-(4-(1-Aminocyclobutyl)phenyl)-2-(2-aminopyridin-3-yl)-3H-imidazo[4,5-b]pyridin-5-yl)phenyl)propanamido)acetamido)-3,3-dimethylbutanoyl)-4-hydroxy-N-(4-(4-methylthiazol-5-yl)benzyl)pyrrolidine-2-carboxamide] | completely inactive |
| Cc1ncsc1-c1ccc(CNC(=O)[C@@H]2C[C@@H](O)CN2C(=O)[C@@H](NC(=O)CCOCCC(=O)NCCc2cccc(-c3ccc4nc(-c5cccnc5N)n(-c5ccc(C6(N)CCC6)cc5)c4n3)c2)C(C)(C)C)cc1 [Compound 34, (2S,4R)-1-((S)-2-(3-(3-((3-(3-(4-(1-Aminocyclobutyl)phenyl)-2-(2-aminopyridin-3-yl)-3H-imidazo[4,5-b]pyridin-5-yl)phenethyl)amino)-3-oxopropoxy)propanamido)-3,3-dimethylbutanoyl)-4-hydroxy-N-(4-(4-methylthiazol-5-yl)benzyl)pyrrolidine-2-carboxamide] | effectively induced T-AKT degradation |
| Cc1ncsc1-c1ccc(CNC(=O)[C@@H]2C[C@@H](O)CN2C(=O)[C@@H](NC(=O)COCCOCCOCCOCCOCC(=O)NCCc2cccc(-c3ccc4nc(-c5cccnc5N)n(-c5ccc(C6(N)CCC6)cc5)c4n3)c2)C(C)(C)C)cc1 [Compound 40, N^1-(3-(3-(4-(1-Aminocyclobutyl)phenyl)-2-(2-aminopyridin-3-yl)-3H-imidazo[4,5-b]pyridin-5-yl)phenethyl)-N^17-((S)-1-((2S,4R)-4-hydroxy-2-((4-(4-methylthiazol-5-yl)benzyl)carbamoyl)pyrrolidin-1-yl)-3,3-dimethyl-1-oxobutan-2-yl)-3,6,9,12,15-pentaoxaheptadecanediamide] | restored effective AKT degradation activity |
| Cc1ncsc1-c1ccc(CNC(=O)[C@@H]2C[C@@H](O)CN2C(=O)[C@@H](NC(=O)CCCCCCCCCCNC(=O)CCc2cccc(-c3ccc4nc(-c5cccnc5N)n(-c5ccc(C6(N)CCC6)cc5)c4n3)c2)C(C)(C)C)cc1 [Compound 20, (2S,4R)-1-((S)-2-(11-(3-(3-(3-(4-(1-Aminocyclobutyl)phenyl)-2-(2-aminopyridin-3-yl)-3H-imidazo[4,5-b]pyridin-5-yl)phenyl)propanamido)undecanamido)-3,3-dimethylbutanoyl)-4-hydroxy-N-(4-(4-methylthiazol-5-yl)benzyl)pyrrolidine-2-carboxamide] | highly effective AKT degraders |
| Cc1ncsc1-c1ccc(CNC(=O)[C@@H]2C[C@@H](O)CN2C(=O)[C@@H](NC(=O)COCC(=O)NCCc2cccc(-c3ccc4nc(-c5cccnc5N)n(-c5ccc(C6(N)CCC6)cc5)c4n3)c2)C(C)(C)C)cc1 [Compound 33, (2S,4R)-1-((S)-2-(2-(2-((3-(3-(4-(1-Aminocyclobutyl)phenyl)-2-(2-aminopyridin-3-yl)-3H-imidazo[4,5-b]pyridin-5-yl)phenethyl)amino)-2-oxoethoxy)acetamido)-3,3-dimethylbutanoyl)-4-hydroxy-N-(4-(4-methylthiazol-5-yl)benzyl)pyrrolidine-2-carboxamide] | effectively induced T-AKT degradation |
